Measured values published in PubChem BioAssay AID250 (DTP/NCI, 2004).
Several values for one entry are separate records, joined by “and”; a condition that tells them apart may be missing. Identical values can stand only once. Toxic doses and inconclusive results are not listed.

Tested on: BDF1 mice, L1210 leukemia sc, survival T/C
Assay: NCI In Vivo Anticancer Drug Screen. Data for tumor model L1210 Leukemia (subcutaneous) in B6D2F1 (BDF1) mice
Details: endpoint: median survival time, higher = longer survival
Summary of the method: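 Expressed as T/C: measurement in compound-treated, tumor-bearing mice relative to vehicle-treated control mice, based on survival or tumor size.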

[1] = dose: 0.65 mg/kg/injection, schedule: Q01DX Z (sc), vehicle: methylcellulose (MC)
[2] = dose: 1.08 mg/kg/injection, schedule: Q01DX Z (sc), vehicle: methylcellulose (MC)
[3] = dose: 1.8 mg/kg/injection, schedule: Q01DX Z (sc), vehicle: methylcellulose (MC)

SMILES: CC[C@](O)(C(=O)O)c1cc2n(c(=O)c1CO)Cc1cc3ccccc3nc1-2
- T/C (dose: 0.5 mg/kg/injection, schedule: Q01DX009 (ip), vehicle: saline): 104 % of control
- T/C (dose: 0.5 mg/kg/injection, schedule: Q01DX009 (sc), vehicle: saline): 104 % of control
- T/C (dose: 1.0 mg/kg/injection, schedule: Q01DX009 (ip), vehicle: saline): 102 % of control
- T/C (dose: 1.0 mg/kg/injection, schedule: Q01DX009 (sc), vehicle: saline): 104 % of control
- T/C (dose: 2.0 mg/kg/injection, schedule: Q01DX009 (ip), vehicle: saline): 116 % of control
- T/C (dose: 2.0 mg/kg/injection, schedule: Q01DX009 (sc), vehicle: saline): 110 % of control
- T/C (dose: 6.25 mg/kg/injection, schedule: Q02DX005 (sc), vehicle: saline): 115 % of control and 120 % of control
- T/C (dose: 6.25 mg/kg/injection, schedule: Q04DX003 (sc), vehicle: saline): 115 % of control and 116 % of control
- T/C (dose: 8.4 mg/kg/injection, schedule: Q04DX003 (sc), vehicle: saline): 122 % of control and 123 % of control
- T/C (dose: 12.5 mg/kg/injection, schedule: Q02DX005 (sc), vehicle: saline): 156 % of control
- T/C (dose: 14.0 mg/kg/injection, schedule: Q07DX003 (sc), vehicle: saline): 115 % of control and 122 % of control
- T/C (dose: 18.0 mg/kg/injection, schedule: Q04DX003 (sc), vehicle: saline): 118 % of control and 120 % of control
- T/C (dose: 18.0 mg/kg/injection, schedule: Q07DX003 (sc), vehicle: saline): 118 % of control and 120 % of control
- T/C (dose: 20.0 mg/kg/injection, schedule: Q07DX003 (sc), vehicle: saline): 120 % of control and 121 % of control
- T/C (dose: 23.0 mg/kg/injection, schedule: Q07DX003 (sc), vehicle: saline): 120 % of control and 122 % of control
- T/C (dose: 25.0 mg/kg/injection, schedule: Q02DX005 (sc), vehicle: saline): 165 % of control and 170 % of control
- T/C (dose: 25.0 mg/kg/injection, schedule: Q07DX003 (sc), vehicle: saline): 150 % of control and 151 % of control
- T/C (dose: 30.0 mg/kg/injection, schedule: Q04DX003 (sc), vehicle: saline): 120 % of control
- T/C (dose: 30.0 mg/kg/injection, schedule: Q07DX003 (sc), vehicle: saline): 120 % of control and 121 % of control
- T/C (dose: 32.0 mg/kg/injection, schedule: Q07DX003 (sc), vehicle: saline): 155 % of control and 158 % of control
- T/C (dose: 39.0 mg/kg/injection, schedule: Q07DX003 (sc), vehicle: saline): 120 % of control and 122 % of control
- T/C (dose: 39.0 mg/kg/injection, schedule: Q09DX003 (sc), vehicle: saline): 116 % of control and 117 % of control
- T/C (dose: 40.0 mg/kg/injection, schedule: Q04DX003 (sc), vehicle: saline): 160 % of control and 181 % of control
- T/C (dose: 50.0 mg/kg/injection, schedule: Q01DX001 (sc), vehicle: saline): 118 % of control and 120 % of control
- T/C (dose: 62.0 mg/kg/injection, schedule: Q07DX003 (sc), vehicle: saline): 175 % of control and 176 % of control
- T/C (dose: 65.0 mg/kg/injection, schedule: Q07DX003 (sc), vehicle: saline): 121 % of control and 122 % of control
- T/C (dose: 65.0 mg/kg/injection, schedule: Q09DX003 (sc), vehicle: saline): 122 % of control
- T/C (dose: 78.0 mg/kg/injection, schedule: Q07DX003 (sc), vehicle: saline): 180 % of control and 181 % of control
- T/C (dose: 80.0 mg/kg/injection, schedule: Q04DX003 (sc), vehicle: saline): 115 % of control and 118 % of control
- T/C (dose: 80.0 mg/kg/injection, schedule: Q07DX003 (sc), vehicle: saline): 120 % of control and 123 % of control
- T/C (dose: 83.3 mg/kg/injection, schedule: Q01DX001 (sc), vehicle: saline): 120 % of control and 121 % of control
- T/C (dose: 98.0 mg/kg/injection, schedule: Q07DX003 (sc), vehicle: saline): 118 % of control and 120 % of control
- T/C (dose: 108.0 mg/kg/injection, schedule: Q07DX003 (sc), vehicle: saline): 120 % of control and 122 % of control
- T/C (dose: 108.0 mg/kg/injection, schedule: Q09DX003 (sc), vehicle: saline): 122 % of control
- T/C (dose: 122.0 mg/kg/injection, schedule: Q07DX003 (sc), vehicle: saline): 118 % of control and 120 % of control
- T/C (dose: 148.0 mg/kg/injection, schedule: Q01DX001 (sc), vehicle: saline): 110 % of control
- T/C (dose: 160.0 mg/kg/injection, schedule: Q04DX003 (sc), vehicle: saline): 90 % of control and 93 % of control
- T/C (dose: 160.0 mg/kg/injection, schedule: Q07DX003 (sc), vehicle: saline): 110 % of control and 122 % of control
- T/C (dose: 180.0 mg/kg/injection, schedule: Q09DX003 (sc), vehicle: saline): 116 % of control and 118 % of control
- T/C (dose: 191.0 mg/kg/injection, schedule: Q07DX003 (sc), vehicle: saline): 150 % of control
- T/C (dose: 246.0 mg/kg/injection, schedule: Q01DX001 (sc), vehicle: saline): 110 % of control
- T/C (dose: 300.0 mg/kg/injection, schedule: Q09DX003 (sc), vehicle: saline): 100 % of control and 101 % of control
- T/C (dose: 320.0 mg/kg/injection, schedule: Q07DX003 (sc), vehicle: saline): 90 % of control
- T/C (dose: 468.0 mg/kg/injection, schedule: Q07DX003 (sc), vehicle: saline): 120 % of control and 121 % of control
- T/C (dose: 731.0 mg/kg/injection, schedule: Q07DX003 (sc), vehicle: saline): 90 % of control and 93 % of control
- T/C (dose: 800.0 mg/kg/injection, schedule: Q07DX003 (sc), vehicle: saline): 88 % of control

SMILES: CCCn1cnc2c(=S)nc(N)[nH]c21
- T/C [1]: 100 % of control
- T/C (dose: 0.65 mg/kg/injection, schedule: Q01DX Z (sc), vehicle: other): 100 % of control
- T/C [2]: 100 % of control
- T/C (dose: 1.08 mg/kg/injection, schedule: Q01DX Z (sc), vehicle: other): 100 % of control
- T/C [3]: 100 % of control
- T/C (dose: 1.8 mg/kg/injection, schedule: Q01DX Z (sc), vehicle: other): 105 % of control
- T/C (dose: 3.0 mg/kg/injection, schedule: Q01DX Z (sc), vehicle: methylcellulose (MC)): 111 % of control
- T/C (dose: 3.0 mg/kg/injection, schedule: Q01DX Z (sc), vehicle: other): 111 % of control
- T/C (dose: 5.0 mg/kg/injection, schedule: Q01DX Z (sc), vehicle: methylcellulose (MC)): 111 % of control
- T/C (dose: 5.0 mg/kg/injection, schedule: Q01DX Z (sc), vehicle: other): 122 % of control
- T/C (dose: 8.4 mg/kg/injection, schedule: Q01DX Z (sc), vehicle: methylcellulose (MC)): 122 % of control
- T/C (dose: 8.4 mg/kg/injection, schedule: Q01DX Z (sc), vehicle: other): 155 % of control
- T/C (dose: 14.0 mg/kg/injection, schedule: Q01DX Z (sc), vehicle: other): 161 % of control
- T/C (dose: 230.0 mg/kg/injection, schedule: Q01DX Z (sc), vehicle: other): 155 % of control
- T/C (dose: 390.0 mg/kg/injection, schedule: Q01DX Z (sc), vehicle: other): 150 % of control

SMILES: CCC(=O)NC1=C(N2CC2)C(=O)C(NC(=O)CC)=C(N2CC2)C1=O
- T/C [2]: 110 % of control
- T/C [3]: 110 % of control

SMILES: COc1ccc2nc3cc(Cl)ccc3c(NCCN(CCCl)CCCl)c2c1
- T/C [1]: 105 % of control
- T/C (dose: 39.0 mg/kg/injection, schedule: Q01DX Z (sc), vehicle: methylcellulose (MC)): 100 % of control

SMILES: Nc1ccn(C2CC(O)C(CO)O2)c(=O)n1 (stereo unspecified)
- T/C (dose: 37.5 mg/kg/injection, schedule: Q06HX018 (sc), vehicle: water): 108 % of control
- T/C (dose: 37.5 mg/kg/injection, schedule: Q## X018 (sc), vehicle: water): 111 % of control
- T/C (dose: 75.0 mg/kg/injection, schedule: Q03HX008 (sc), vehicle: water): 90 % of control and 93 % of control
- T/C (dose: 75.0 mg/kg/injection, schedule: Q06HX018 (sc), vehicle: water): 102 % of control
- T/C (dose: 75.0 mg/kg/injection, schedule: Q## X018 (sc), vehicle: water): 100 % of control
- T/C (dose: 150.0 mg/kg/injection, schedule: Q03HX008 (sc), vehicle: water): 100 % of control and 102 % of control
- T/C (dose: 150.0 mg/kg/injection, schedule: Q06HX018 (sc), vehicle: water): 98 % of control
- T/C (dose: 150.0 mg/kg/injection, schedule: Q## X018 (sc), vehicle: water): 100 % of control
- T/C (dose: 300.0 mg/kg/injection, schedule: Q06HX018 (sc), vehicle: water): 106 % of control
- T/C (dose: 300.0 mg/kg/injection, schedule: Q## X018 (sc), vehicle: water): 105 % of control

SMILES: COc1cccc(/C=N/NC(N)=S)c1
- T/C (dose: 78.0 mg/kg/injection, schedule: Q01DX Z (sc), vehicle: water): 100 % of control
- T/C (dose: 130.0 mg/kg/injection, schedule: Q01DX Z (sc), vehicle: water): 105 % of control
- T/C (dose: 216.0 mg/kg/injection, schedule: Q01DX Z (sc), vehicle: water): 100 % of control

SMILES: COc1cc([C@@H]2c3cc4c(cc3[C@@H](OC3OC5COC(C)OC5C(O)C3O)[C@H]3COC(=O)[C@H]23)OCO4)cc(OC)c1O (stereo partly specified)
- T/C (dose: 2.0 mg/kg/injection, schedule: Q01DX009 (ip), vehicle: Klucel (hydroxypropylcellulose) (HPC)): 120 % of control
- T/C (dose: 8.0 mg/kg/injection, schedule: Q01DX009 (ip), vehicle: Klucel (hydroxypropylcellulose) (HPC)): 160 % of control
- T/C (dose: 16.0 mg/kg/injection, schedule: Q01DX009 (ip), vehicle: Klucel (hydroxypropylcellulose) (HPC)): 105 % of control
